According to patent US20230233569A1 (Revolution Medicines, Inc., priority 2020, published 2023):
Where two headings read alike, the source gives them in different places.

Key:
Experiment in all cases: Ras-Raf disruption / FRET / MOA assay (BRAF RBD)
Type in all cases: biochemical
[1] = target: KRAS G12V (Homo sapiens, UniProt P01116+P62937, G12V); conditions: with Cyclophilin A
Source text: (§1) Disruption of […] Ras-binding Domain (BRAF^RBD) Interaction with K-Ras by Compounds of the Invention (also Called a FRET Assay or an MOA Assay)
(§2) Note—The following protocol describes a procedure for monitoring disruption of K-Ras G12C (GMP-PNP) binding to BRAF^RBD by a compound of the invention. This protocol may also be executed substituting other Ras proteins or nucleotides, such as K-Ras G12D and K-Ras G13D.
(§3) The purpose of this biochemical assay was to measure the ability of test compounds to facilitate ternary complex formation between a nucleotide-loaded K-Ras isoform and Cyclophilin A; the resulting ternary complex disrupts binding to a BRAF^RBD construct, inhibiting K-Ras signaling through a RAF effector. Data is reported as IC50 values.
(§4) In assay buffer containing 25 mM HEPES pH 7.3, 0.002% Tween20, 0.1% BSA, 100 mM NaCl and 5 mM MgCl2, tagless Cyclophilin A, His6-K-Ras-GMPPNP, and GST-BRAF^RBD were combined in a 384-well assay plate at final concentrations of 25 μM, 12.5 nM, and 50 nM, respectively. Compound was present in plate wells as a 10-point 3-fold dilution series starting at a final concentration of 30 μM. After incubation at 25° C. for 3 hours, a mixture of anti-His Eu-W1024 and anti-GST allophycocyanin was then added to assay sample wells at final concentrations of 10 nM and 50 nM, respectively, and the reaction incubated for an additional 1.5 hours. […] Compounds that facilitate disruption of a K-Ras:RAF complex were identified as those eliciting a decrease in the TR-FRET ratio relative to DMSO control wells.

[2] = target: KRAS G12S (Homo sapiens, UniProt P01116+P62937, G12S); conditions: with Cyclophilin A
Source text: as §1, §2, §3, §4

[3] = target: KRAS G13D (Homo sapiens, UniProt P01116+P62937, G13D); conditions: with Cyclophilin A
Source text: as §1, §2, §3, §4

[4] = target: KRAS WT (Homo sapiens, UniProt P01116+P62937); conditions: with Cyclophilin A
Source text: as §1, §2, §3, §4

[5] = target: NRAS G12C (Homo sapiens, UniProt P01111+P62937, G12C); conditions: NRAS G12C; read-out: NRAS G12C FRET data IC50
Source text: as §1, §2, §3, §4

[6] = target: KRAS G12D (Homo sapiens, UniProt P01116+P62937, G12D); conditions: Ras-Raf disruption, with Cyclophilin A; read-out: KRAS G12D FRET data IC50
Source text: as §1, §2, §3, §4

[7] = target: KRAS G13C (Homo sapiens, UniProt P01116+P62937, G13C); conditions: Ras-Raf disruption, with Cyclophilin A; read-out: KRAS G13C FRET data IC50
Source text: as §1, §2, §3, §4

[8] = target: KRAS G12C (Homo sapiens, UniProt P01116+P62937, G12C); conditions: Ras-Raf disruption, with Cyclophilin A; read-out: KRAS G12C FRET data IC50
Source text: as §1, §2, §3, §4
as §3, with “is” for “was”, “Ras” for “K-Ras”, “cyclophilin” for “Cyclophilin”, “effector.” for “effector. Data is reported as IC50 values.”
In assay buffer containing 25 mM HEPES pH 7.3, 0.002% Tween20, 0.1% BSA, 100 mM NaCl and 5 mM MgCl2, tagless Cyclophilin A, His6-K-Ras-GMPPNP (or other Ras variant), and GST-BRAF^RBD are combined in a 384-well assay plate at final concentrations of 25 μM, 12.5 nM and 50 nM, respectively. Compound is present in plate wells as a 10-point 3-fold dilution series starting at a final concentration of 30 μM. After incubation at 25° C. for 3 hours, a mixture of Anti-His Eu-W1024 and anti-GST allophycocyanin is then added to assay sample wells at final concentrations of 10 nM and 50 nM, respectively, and the reaction incubated for an additional 1.5 hours. […] Compounds that facilitate disruption of a Ras:RAF complex are identified as those eliciting a decrease in the TR-FRET ratio relative to DMSO control wells.

[9] = Ras-Raf disruption, read-out: KRAS G12V FRET data IC50
[10] = Ras-Raf disruption, read-out: KRAS G12S FRET data IC50
[11] = Ras-Raf disruption, read-out: KRAS G13D FRET data IC50
[12] = Ras-Raf disruption, read-out: KRAS WT FRET data IC50

Sequence of KRAS G12D (P01116 1-169 isoform P01116-2 G12D limits assumed): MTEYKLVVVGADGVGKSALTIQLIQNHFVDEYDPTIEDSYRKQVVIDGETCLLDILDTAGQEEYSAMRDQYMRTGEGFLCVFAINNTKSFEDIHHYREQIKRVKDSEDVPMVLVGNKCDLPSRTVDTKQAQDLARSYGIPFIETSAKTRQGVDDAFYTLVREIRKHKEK
Sequence of KRAS G12D (P62937 whole entry): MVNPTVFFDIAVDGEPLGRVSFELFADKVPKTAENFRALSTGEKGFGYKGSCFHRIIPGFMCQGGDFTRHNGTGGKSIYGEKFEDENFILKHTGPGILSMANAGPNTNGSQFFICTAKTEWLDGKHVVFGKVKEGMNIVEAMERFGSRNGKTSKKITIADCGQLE
Sequence of KRAS WT (P01116 1-169 isoform P01116-2 limits assumed): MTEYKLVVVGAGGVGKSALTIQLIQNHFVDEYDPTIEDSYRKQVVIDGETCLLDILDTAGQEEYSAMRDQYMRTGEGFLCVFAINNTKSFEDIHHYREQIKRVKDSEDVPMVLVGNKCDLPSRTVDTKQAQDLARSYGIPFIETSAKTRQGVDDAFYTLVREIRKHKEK
Sequence of KRAS WT (P62937 whole entry): as the sequence (P62937 whole entry) above
Sequence of KRAS G12C (P01116 1-169 isoform P01116-2 G12C limits assumed): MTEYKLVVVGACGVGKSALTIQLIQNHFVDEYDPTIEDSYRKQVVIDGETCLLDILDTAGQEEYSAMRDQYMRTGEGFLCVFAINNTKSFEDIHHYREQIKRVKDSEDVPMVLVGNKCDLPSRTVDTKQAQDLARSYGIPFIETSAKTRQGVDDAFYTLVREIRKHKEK
Sequence of KRAS G12C (P62937 whole entry): as the sequence (P62937 whole entry) above
Sequence of KRAS G12V (P01116 1-169 isoform P01116-2 G12V limits assumed): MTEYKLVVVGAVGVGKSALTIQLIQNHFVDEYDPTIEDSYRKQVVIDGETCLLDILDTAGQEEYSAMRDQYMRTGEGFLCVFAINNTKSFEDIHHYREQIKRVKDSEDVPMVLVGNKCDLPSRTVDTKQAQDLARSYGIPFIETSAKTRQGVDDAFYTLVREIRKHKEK
Sequence of KRAS G12V (P62937 whole entry, the tested form may be a part): as the sequence (P62937 whole entry) above
Sequence of NRAS G12C (P01111 whole entry G12C): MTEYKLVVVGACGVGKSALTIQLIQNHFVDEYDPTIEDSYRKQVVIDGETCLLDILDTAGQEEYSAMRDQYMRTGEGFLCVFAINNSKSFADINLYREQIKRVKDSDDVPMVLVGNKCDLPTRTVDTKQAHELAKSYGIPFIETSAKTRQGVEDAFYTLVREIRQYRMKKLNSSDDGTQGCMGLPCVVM
Sequence of NRAS G12C (P62937 whole entry): as the sequence (P62937 whole entry) above
Sequence of KRAS G12S (P01116 1-169 isoform P01116-2 G12S limits assumed): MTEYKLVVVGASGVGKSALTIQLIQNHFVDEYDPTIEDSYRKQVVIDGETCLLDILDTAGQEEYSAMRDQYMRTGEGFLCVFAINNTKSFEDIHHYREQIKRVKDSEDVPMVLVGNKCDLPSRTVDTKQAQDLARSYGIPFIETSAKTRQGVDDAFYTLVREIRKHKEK
Sequence of KRAS G12S (P62937 whole entry): as the sequence (P62937 whole entry) above
Sequence of KRAS G13D (P01116 1-169 isoform P01116-2 G13D limits assumed): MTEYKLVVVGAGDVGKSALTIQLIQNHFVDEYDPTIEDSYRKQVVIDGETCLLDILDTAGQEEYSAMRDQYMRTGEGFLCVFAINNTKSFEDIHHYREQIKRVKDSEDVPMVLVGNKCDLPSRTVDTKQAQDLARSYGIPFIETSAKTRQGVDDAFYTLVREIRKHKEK
Sequence of KRAS G13D (P62937 whole entry): as the sequence (P62937 whole entry) above
Sequence of KRAS G13C (P01116 1-169 isoform P01116-2 G13C limits assumed): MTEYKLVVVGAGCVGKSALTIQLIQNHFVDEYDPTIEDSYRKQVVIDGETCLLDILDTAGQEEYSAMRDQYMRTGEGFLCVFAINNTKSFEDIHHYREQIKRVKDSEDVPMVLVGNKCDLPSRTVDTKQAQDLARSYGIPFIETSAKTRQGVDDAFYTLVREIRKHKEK
Sequence of KRAS G13C (P62937 whole entry): as the sequence (P62937 whole entry) above

| Structure (SMILES) | IC50 [1, 9] | IC50 [2, 10] | IC50 [3, 11] | IC50 [4, 12] | IC50 [5] | IC50 [6] | IC50 [7] | IC50 [8] | IC50 ([2]; KRAS G12S FRET data IC50, Ras-Raf disruption) | IC50 ([1]; KRAS G12V FRET data IC50, Ras-Raf disruption) | IC50 ([3]; KRAS G13D FRET data IC50, Ras-Raf disruption) | IC50 ([4]; KRAS WT FRET data IC50, Ras-Raf disruption) |
| --- | --- | --- | --- | --- | --- | --- | --- | --- | --- | --- | --- | --- |
| CCn1c(-c2cnccc2COC)c2c3cc(ccc31)-c1cccc(c1)C[C@H](NC(=O)[C@H](C(C)C)N(C)C(=O)CCCN=C=NCCCOC)C(=O)N1CCC[C@H](N1)C(=O)OCC(C)(C)C2 [69 A and B] | 1 to 10 µM |  |  |  |  |  |  |  |  |  |  |  |
| CCn1c(-c2cnccc2COC)c2c3cc(ccc31)-c1cccc(c1)C[C@H](NC(=O)[C@H](C(C)C)N(C)C(=O)CCN=C=NCCc1cccs1)C(=O)N1CCC[C@H](N1)C(=O)OCC(C)(C)C2 [68 A and B] | > 10 µM | > 10 µM | > 10 µM | > 10 µM |  |  |  |  |  |  |  |  |
| CCn1c(-c2cnccc2COC)c2c3cc(ccc31)-c1cccc(c1)C[C@H](NC(=O)[C@H](C(C)C)N(C)C(=O)CCN=C=NC1(COC)CC1)C(=O)N1CCC[C@H](N1)C(=O)OCC(C)(C)C2 [72 A and B] |  | > 10 µM |  | > 10 µM | 0.1 to 1 µM |  |  |  |  |  |  |  |
| CCn1c(-c2cnccc2COC)c2c3cc(ccc31)-c1cccc(c1)C[C@H](NC(=O)[C@H](C(C)C)N(C)C(=O)CCN=C=NCCCN1CCOCC1)C(=O)N1CCC[C@H](N1)C(=O)OCC(C)(C)C2 [17 A and B] | > 10 µM | > 10 µM |  | > 10 µM |  | 1 to 10 µM | 1 to 10 µM | 0.01 to 0.1 µM |  |  |  |  |
| CCn1c(-c2cccnc2[C@H](C)OC)c2c3cc(ccc31)-c1cc(O)cc(c1)C[C@H](NC(=O)[C@H](C(C)C)N(C)C(=O)C1CC3(C1)CN(C(=O)[C@H]1CN1)C3)C(=O)N1CCC[C@H](N1)C(=O)OCC(C)(C)C2 [Example 181] | 0.1 to 1 µM | 0.1 to 1 µM | 0.1 to 1 µM | 0.1 to 1 µM | 0.01 to 0.1 µM |  | 0.01 to 0.1 µM | 0.01 to 0.1 µM |  |  |  |  |
| CCn1c(-c2cnccc2COC)c2c3cc(ccc31)-c1cccc(c1)C[C@H](NC(=O)[C@H](C(C)C)N(C)C(=O)CCN=C=NCCCSC)C(=O)N1CCC[C@H](N1)C(=O)OCC(C)(C)C2 [16 A and B] |  | > 10 µM | > 10 µM |  |  |  |  |  |  |  |  |  |
| CCn1c(-c2cnccc2COC)c2c3cc(ccc31)-c1cccc(c1)C[C@H](NC(=O)[C@H](C(C)C)N(C)C(=O)CCN=C=NCc1ccccc1C)C(=O)N1CCC[C@H](N1)C(=O)OCC(C)(C)C2 [82 A and B] | > 10 µM | > 10 µM | > 10 µM | > 10 µM |  |  | > 10 µM |  |  |  |  |  |
| CCn1c(-c2cccnc2[C@H](C)OC)c2c3cc(ccc31)-c1cc(O)cc(c1)C[C@H](NC(=O)[C@H](C(C)C)N(C)C(=O)[C@H]1CCN(C(=O)[C@H]3CN3)C1)C(=O)N1CCC[C@H](N1)C(=O)OCC(C)(C)C2 (single isomer, unassigned) [Example 43B] | 1 to 10 µM | 1 to 10 µM | 1 to 10 µM |  | 0.01 to 0.1 µM | 1 to 10 µM | 1 to 10 µM | 0.01 to 0.1 µM |  |  |  |  |
| CCn1c(-c2cccnc2[C@H](C)OC)c2c3cc(ccc31)-c1cc(O)cc(c1)C[C@H](NC(=O)[C@H](C(C)C)N(C)C(=O)N1CCN(C(=O)[C@@H]3CN3)C(=O)C1)C(=O)N1CCC[C@H](N1)C(=O)OCC(C)(C)C2 [Example 197] | 0.01 to 0.1 µM | 0.01 to 0.1 µM |  | 0.01 to 0.1 µM | 0.01 to 0.1 µM |  |  | 0.01 to 0.1 µM |  |  |  |  |
| CCn1c(-c2cnccc2COC)c2c3cc(ccc31)-c1cccc(c1)C[C@H](NC(=O)[C@H](C(C)C)N(C)C(=O)[C@@H]1CCC(N=C=Nc3ccc(OC)cc3)C1)C(=O)N1CCC[C@H](N1)C(=O)OCC(C)(C)C2 (some centres unmarked) [70 A and B] | > 10 µM | > 10 µM | > 10 µM | > 10 µM |  |  |  |  |  |  |  |  |
| CCn1c(-c2cnccc2COC)c2c3cc(ccc31)-c1cccc(c1)C[C@H](NC(=O)[C@H](C(C)C)N(C)C(=O)CCN=C=NCc1ccccc1)C(=O)N1CCC[C@H](N1)C(=O)OCC(C)(C)C2 [19 A and B] | > 10 µM | > 10 µM |  | > 10 µM |  |  |  |  |  |  |  |  |
| CCn1c(-c2cnccc2COC)c2c3cc(ccc31)-c1cc(O)cc(c1)C[C@H](NC(=O)[C@H](C(C)C)N(C)C(=O)CN(C)C(=O)C1CN1)C(=O)N1CCC[C@H](N1)C(=O)OCC(C)(C)C2 (some centres unmarked) [32 A and B] |  |  |  |  |  |  |  |  | > 10 µM | > 10 µM | 1 to 10 µM | > 10 µM |
| CCn1c(-c2cnccc2COC)c2c3cc(ccc31)-c1cccc(c1)C[C@H](NC(=O)[C@H](C(C)C)N(C)C(=O)CCN=C=NC(C)(C)C)C(=O)N1CCC[C@H](N1)C(=O)OCC(C)(C)C2 [79 A and B] |  | > 10 µM | > 10 µM |  |  | > 10 µM |  |  |  |  |  |  |
| CCn1c(-c2cnccc2COC)c2c3cc(ccc31)-c1cccc(c1)C[C@H](NC(=O)[C@H](C(C)C)N(C)C(=O)CC1(N=C=Nc3ccc(OC)cc3)CC1)C(=O)N1CCC[C@H](N1)C(=O)OCC(C)(C)C2 [65 A and B] | > 10 µM | > 10 µM | > 10 µM | > 10 µM | > 10 µM | > 10 µM |  |  |  |  |  |  |
| CCn1c(-c2cnccc2COC)c2c3cc(ccc31)-c1cccc(c1)C[C@H](NC(=O)[C@H](C(C)C)N(C)C(=O)CCN=C=NCc1ccc(OC)cc1)C(=O)N1CCC[C@H](N1)C(=O)OCC(C)(C)C2 [18 A and B] | > 10 µM | > 10 µM |  | > 10 µM |  |  |  |  |  |  |  |  |
| CCn1c(-c2cnccc2COC)c2c3cc(ccc31)-c1cccc(c1)C[C@H](NC(=O)[C@H](C(C)C)N(C)C(=O)C1CCC(N=C=Nc3ccc(OC)cc3)C1)C(=O)N1CCC[C@H](N1)C(=O)OCC(C)(C)C2 (some centres unmarked) [71 A and B] | > 10 µM | > 10 µM | > 10 µM | > 10 µM |  | > 10 µM | > 10 µM |  |  |  |  |  |
| CCn1c(-c2cnccc2COC)c2c3cc(ccc31)-c1cccc(c1)C[C@H](NC(=O)[C@H](C(C)C)N(C)C(=O)CCN=C=Nc1ccccc1OC)C(=O)N1CCC[C@H](N1)C(=O)OCC(C)(C)C2 [20 A and B] | > 10 µM | > 10 µM | > 10 µM | > 10 µM |  | > 10 µM |  |  |  |  |  |  |
| CCCN=C=NCCC(=O)N(C)[C@H](C(=O)N[C@H]1Cc2cccc(c2)-c2ccc3c(c2)c(c(-c2cnccc2COC)n3CC)CC(C)(C)COC(=O)[C@@H]2CCCN(N2)C1=O)C(C)C [22 A and B] | 1 to 10 µM | 1 to 10 µM | > 10 µM | 1 to 10 µM | 0.01 to 0.1 µM |  | 0.1 to 1 µM | 0.01 to 0.1 µM |  |  |  |  |
| CCn1c(-c2cnccc2COC)c2c3cc(ccc31)-c1cc(O)cc(c1)C[C@H](NC(=O)[C@H](C(C)C)N(C)C(=O)c1ccc(NC(=O)[C@H]3CN3)cn1)C(=O)N1CCC[C@H](N1)C(=O)OCC(C)(C)C2 [47 A and B] |  |  |  |  |  | 1 to 10 µM | 0.01 to 0.1 µM |  |  |  |  |  |
| CCn1c(-c2cnccc2COC)c2c3cc(ccc31)-c1cccc(c1)C[C@H](NC(=O)[C@H](C(C)C)N(C)C(=O)CCN=C=NCc1ccc(OC)cc1OC)C(=O)N1CCC[C@H](N1)C(=O)OCC(C)(C)C2 [61 A and B] | > 10 µM | > 10 µM | > 10 µM | > 10 µM |  | > 10 µM | > 10 µM |  |  |  |  |  |
